Source: patent publication US20110040088A1, “FUSED HETEROCYCLIC COMPOUNDS” (priority 2003, published 2011)
Read-outs that look alike come from different tables or passages of the source.

Experiments:
rat 5-HT7a receptor = target: T1, rat 5-HT7a receptor (Rattus norvegicus, UniProt P32305); test: 5-HT7 receptor radioligand binding ([3H]5-CT, membranes of transfected HEK-293 cells); details: rat 5-HT7a in HEK-293 membranes, 1 nM [3H]5-CT
T1 construct: expressed in transfected cells

5-HT2A receptor = 5-HT2A receptor (UniProt P28223); test: 5-HT2A receptor radioligand binding ([3H]ketanserin); details: read-out: Ki 5-HT2A, table does not say whether rat cortex or human recombinant (NIH3T3) receptor;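 note: competitive displacement binding on membranes, either from rat cerebral cortex or from NIH3T3 cells stably expressing human 5-HT2A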
Protocol: The affinity of the compounds for the rat 5-HT2A receptor was evaluated by competitive radioligand binding assay using [^3H]ketanserine as the radioligand. The assay was performed on membranes from rat cortex as previously described (Schotte, A. et al., Psychopharmacology (1996) 124: 57-73). Briefly, brain tissue (rat cortex) was homogenized in 20 volumes per wet weight tissue of Tris-HCl buffer (50 mM, pH 7.4). The total membrane fraction was collected by centrifugation and washed by subsequent centrifugation runs (25 min at 25,000 g at 4° C.). Membranes were re-suspended in Tris-HCl buffer (50 mM, pH 7.4) containing 1 nM [^3H]ketanserin. Non-specific binding was estimated in the presence of 10 μM risperidone.

[1] = target: human recombinant 5-HT2B receptor (Homo sapiens, UniProt P41595); test: 5-HT2B receptor radioligand binding ([3H]mesulergine, CHO membranes);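 note: competitive displacement binding on membranes of CHO cells stably expressing the receptor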
Sequence of human recombinant 5-HT2B receptor (P41595 whole entry): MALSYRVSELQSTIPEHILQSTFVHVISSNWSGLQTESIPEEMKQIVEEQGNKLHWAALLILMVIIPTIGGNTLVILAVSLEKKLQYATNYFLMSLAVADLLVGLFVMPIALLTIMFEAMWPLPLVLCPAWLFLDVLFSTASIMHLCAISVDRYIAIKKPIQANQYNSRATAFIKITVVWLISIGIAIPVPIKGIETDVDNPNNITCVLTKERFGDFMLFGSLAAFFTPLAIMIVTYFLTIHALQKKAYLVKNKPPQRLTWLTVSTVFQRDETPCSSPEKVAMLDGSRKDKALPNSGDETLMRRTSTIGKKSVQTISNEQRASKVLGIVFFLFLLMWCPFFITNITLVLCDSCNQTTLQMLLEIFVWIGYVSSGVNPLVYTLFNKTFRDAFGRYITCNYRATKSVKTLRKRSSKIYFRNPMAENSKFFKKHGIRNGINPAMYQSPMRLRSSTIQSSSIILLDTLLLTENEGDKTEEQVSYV
Protocol: (§1) Affinity for 5HT2 Receptor Binding Sites
(§2) Receptor binding was performed using the human recombinant 5-HT2A (GB: X57830), 5-HT2B (GB: Z36748) and 5-HT2c (GB: M81778) receptors. The affinity of the compounds for the 3 different human 5-HT2 receptor subtypes was evaluated by competitive radioligand binding assays using [^3H]ketanserin (h5-HT2A) or [^3H]mesulergine (h5-HT2B and h5-HT2c). The assays were performed on membranes prepared from NIH3T3 stably transfected with h5-HT2A or CHO stably transfected with h5-HT2B and h5-HT2C.

[2] = target: T2, human recombinant 5-HT2C receptor (Homo sapiens, UniProt P28335); test: 5-HT2C receptor radioligand binding ([3H]mesulergine, CHO membranes);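 note: competitive displacement of the tritiated ligand, using membranes from CHO cells stably transfected with the human receptor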
T2 sequence (P28335 33-458): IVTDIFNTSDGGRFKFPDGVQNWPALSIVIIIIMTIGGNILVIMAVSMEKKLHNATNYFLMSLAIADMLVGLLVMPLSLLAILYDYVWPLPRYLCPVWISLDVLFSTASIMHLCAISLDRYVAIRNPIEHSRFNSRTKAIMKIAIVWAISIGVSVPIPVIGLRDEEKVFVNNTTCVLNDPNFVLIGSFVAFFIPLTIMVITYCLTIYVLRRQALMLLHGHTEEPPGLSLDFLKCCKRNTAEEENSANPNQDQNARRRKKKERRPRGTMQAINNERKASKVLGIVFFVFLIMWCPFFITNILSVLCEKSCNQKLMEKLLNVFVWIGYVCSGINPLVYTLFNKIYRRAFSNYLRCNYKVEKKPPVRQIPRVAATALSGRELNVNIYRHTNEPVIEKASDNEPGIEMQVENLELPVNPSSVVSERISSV
Protocol: as §1, §2

[3] = read-out: Ki 5-HT2C, h5-HT2C in CHO membranes, [3H]mesulergine

T1 sequence (P32305 whole entry): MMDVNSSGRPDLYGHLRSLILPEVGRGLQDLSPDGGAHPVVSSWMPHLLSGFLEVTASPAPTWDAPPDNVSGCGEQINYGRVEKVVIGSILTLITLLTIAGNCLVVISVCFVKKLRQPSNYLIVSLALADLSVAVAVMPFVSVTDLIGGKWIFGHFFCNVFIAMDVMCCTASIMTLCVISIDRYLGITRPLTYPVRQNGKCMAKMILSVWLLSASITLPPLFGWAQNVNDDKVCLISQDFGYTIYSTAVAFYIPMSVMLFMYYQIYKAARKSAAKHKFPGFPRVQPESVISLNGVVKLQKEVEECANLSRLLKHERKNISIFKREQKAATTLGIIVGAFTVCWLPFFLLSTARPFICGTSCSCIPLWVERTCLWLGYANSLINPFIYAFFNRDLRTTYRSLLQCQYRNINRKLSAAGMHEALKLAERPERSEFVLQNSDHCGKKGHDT

SMILES	Ki (rat 5-HT7a receptor)	Ki (5-HT2A receptor)	Ki [1]	Ki [2]	Ki [2, 3]	Ki ([1]; read-out: Ki 5-HT2B, h5-HT2B in CHO membranes, [3H]mesulergine)
CC(C)Cn1nc2c(c1-c1ccc(Cl)cc1)CCNCC2 [Example 131, 3-(4-Chloro-phenyl)-2-isobutyl-2,4,5,6,7,8-hexahydro-1,2,6-triaza-azulene]	120 nM	7 nM	4.2 nM	50 nM	–	–
COc1ccc(-c2c3c(nn2C(C)C)CCNCC3)cc1 [Example 242, 2-Isopropyl-3-(4-methoxy-phenyl)-2,4,5,6,7,8-hexahydro-1,2,6-triaza-azulene]	21 nM	8 nM	1.3 nM	–	45 nM	–
CCC(C)n1nc2c(c1-c1ccc(F)cc1)CCNCC2 (stereo not shown) [Example 299, 2-sec-Butyl-3-(4-fluoro-phenyl)-2,4,5,6,7,8-hexahydro-1,2,6-triaza-azulene]	35 nM	1.7 nM	9 nM	26 nM	–	–
Clc1ccc(-c2nn(Cc3cccs3)c3c2CCNCC3)cc1 [Example 103, 3-(4-Chloro-phenyl)-1-thiophen-2-ylmethyl-1,4,5,6,7,8-hexahydro-1,2,6-triaza-azulene]	7.7 nM	60 nM	44 nM	150 nM	–	–
Cc1ccc(-c2c3c(nn2C2CC2)CCNCC3)cc1 [Example 284, 2-Cyclopropyl-3-p-tolyl-2,4,5,6,7,8-hexahydro-1,2,6-triaza-azulene]	10 nM	1 nM	2 nM	60 nM	–	–
CCC(C)n1nc2c(c1-c1ccc(C(F)(F)F)cc1)CCNCC2 (stereo not shown) [Example 301, 2-sec-Butyl-3-(4-trifluoromethyl-phenyl)-2,4,5,6,7,8-hexahydro-1,2,6-triaza-azulene]	40 nM	1.6 nM	3 nM	100 nM	–	–
Fc1ccc(-c2c3c(nn2C2CCC2)CCNCC3)cc1 [Example 277, 2-Cyclobutyl-3-(4-fluoro-phenyl)-2,4,5,6,7,8-hexahydro-1,2,6-triaza-azulene]	150 nM	0.9 nM	3 nM	40 nM	–	–
Cc1ccc(-c2c3c(nn2C2CCC2)CCNCC3)cc1 [Example 278, 2-Cyclobutyl-3-p-tolyl-2,4,5,6,7,8-hexahydro-1,2,6-triaza-azulene]	35 nM	0.1 nM	0.2 nM	10 nM	–	–
CCC(CC)n1nc2c(c1-c1cccc(F)c1)CCNCC2 [Example 183, 2-(1-Ethyl-propyl)-3-(3-fluoro-phenyl)-2,4,5,6,7,8-hexahydro-1,2,6-triaza-azulene]	240 nM	7 nM	54 nM	70 nM	–	–
FC(F)(F)c1ccc(-c2c3c(nn2C2CCC2)CCNCC3)cc1 [Example 279, 2-Cyclobutyl-3-(4-trifluoromethyl-phenyl)-2,4,5,6,7,8-hexahydro-1,2,6-triaza-azulene]	80 nM	0.8 nM	1 nM	45 nM	–	–
CC(C)n1nc2c(c1-c1ccc(Cl)cc1)CCNCC2 [Example 211, 3-(4-Chloro-phenyl)-2-isopropyl-2,4,5,6,7,8-hexahydro-1,2,6-triaza-azulene]	8.5 nM	5 nM	0.5 nM	–	18 nM	–
CC(C)(C)n1nc2c(c1-c1ccc(F)cc1)CCNCC2 [Example 216, 2-tert-Butyl-3-(4-fluoro-phenyl)-2,4,5,6,7,8-hexahydro-1,2,6-triaza-azulene]	70 nM	6 nM	20 nM	17 nM	–	–
Fc1ccc(-c2c3c(nn2C2CCCC2)CCNCC3)cc1F [Example 236, 2-Cyclopentyl-3-(3,4-difluoro-phenyl)-2,4,5,6,7,8-hexahydro-1,2,6-triaza-azulene]	950 nM	7 nM	4.5 nM	32 nM	–	–
c1ccc(Cn2nc(-c3cccs3)c3c2CCNCC3)cc1 [Example 104, 1-Benzyl-3-thiophen-2-yl-1,4,5,6,7,8-hexahydro-1,2,6-triaza-azulene]	9 nM	80 nM	52 nM	360 nM	–	–
CN1CCc2c(-c3ccc(Cl)cc3)nn(Cc3ccccc3)c2CC1 [Example 165, 1-Benzyl-3-(4-chloro-phenyl)-6-methyl-1,4,5,6,7,8-hexahydro-1,2,6-triaza-azulene]	4 nM	100 nM	310 nM	180 nM	–	–
c1ccc(-c2c3c(nn2C2CCCC2)CCNCC3)cc1 [Example 180, 2-Cyclopentyl-3-phenyl-2,4,5,6,7,8-hexahydro-1,2,6-triaza-azulene]	10 nM	1.5 nM	1.4 nM	12 nM	–	–

SMILES	Ki (rat 5-HT7a receptor)	Ki (5-HT2A receptor)	Ki [1]	Ki [2]	Ki [2, 3]	Ki ([1]; read-out: Ki 5-HT2B, h5-HT2B in CHO membranes, [3H]mesulergine)
CCC(C)n1nc2c(c1-c1ccccc1)CCNCC2 (stereo not shown) [Example 298, 2-sec-Butyl-3-phenyl-2,4,5,6,7,8-hexahydro-1,2,6-triaza-azulene]	50 nM	5 nM	6.5 nM	60 nM	–	–
c1cc(-c2c3c(nn2C2CCCC2)CCNCC3)cs1 [Example 192, 2-Cyclopentyl-3-thiophen-3-yl-2,4,5,6,7,8-hexahydro-1,2,6-triaza-azulene]	20 nM	2.5 nM	0.9 nM	15 nM	–	–
c1ccc(-c2c3c(nn2C2CCCCC2)CCNCC3)cc1 [Example 177, 2-Cyclohexyl-3-phenyl-2,4,5,6,7,8-hexahydro-1,2,6-triaza-azulene]	80 nM	7 nM	7 nM	110 nM	–	–
c1csc(-c2c3c(nn2C2CCCC2)CCNCC3)c1 [Example 233, 2-Cyclopentyl-3-thiophen-2-yl-2,4,5,6,7,8-hexahydro-1,2,6-triaza-azulene]	15 nM	4 nM	25 nM	16 nM	–	–
CC1CNCCc2c1nn(C(C)C)c2-c1ccc(F)cc1 (stereo not shown) [Example 306, 3-(4-Fluoro-phenyl)-2-isopropyl-8-methyl-2,4,5,6,7,8-hexahydro-1,2,6-triaza-azulene]	120 nM	1 nM	22 nM	39 nM	–	–
CC(C)n1nc2c(c1-c1ccc(F)cc1)CCNCC2 [Example 190, 3-(4-Fluoro-phenyl)-2-isopropyl-2,4,5,6,7,8-hexahydro-1,2,6-triaza-azulene]	16 nM	10 nM	22 nM	51 nM	–	–
Cc1cccc(Cn2nc(-c3ccc(Cl)cc3)c3c2CCNCC3)c1 [Example 74, 3-(4-Chloro-phenyl)-1-(3-methyl-benzyl)-1,4,5,6,7,8-hexahydro-1,2,6-triaza-azulene]	5 nM	100 nM	94 nM	180 nM	–	–
Fc1ccc(-c2c3c(nn2C2CCCC2)CCNCC3)cc1 [Example 182, 2-Cyclopentyl-3-(4-fluoro-phenyl)-2,4,5,6,7,8-hexahydro-1,2,6-triaza-azulene]	90 nM	0.74 nM	1.4 nM	18 nM	–	–
CCC(CC)n1nc2c(c1-c1ccccc1)CCNCC2 [Example 186, 2-(1-Ethyl-propyl)-3-phenyl-2,4,5,6,7,8-hexahydro-1,2,6-triaza-azulene]	61 nM	1 nM	24 nM	20 nM	–	–
CC(C)n1nc2c(c1-c1ccc(C#N)cc1)CCNCC2 [Example 212, 4-(2-Isopropyl-2,4,5,6,7,8-hexahydro-1,2,6-triaza-azulen-3-yl)-benzonitrile]	93 nM	25 nM	–	425 nM	–	12 nM
N#Cc1ccc(-c2c3c(nn2C2CC2)CCNCC3)cc1 [Example 286, 4-(2-Cyclopropyl-2,4,5,6,7,8-hexahydro-1,2,6-triaza-azulen-3-yl)-benzonitrile]	335 nM	50 nM	80 nM	5000 nM	–	–
c1ccc(-c2c3c(nn2C2CCC2)CCNCC3)cc1 [Example 276, 2-Cyclobutyl-3-phenyl-2,4,5,6,7,8-hexahydro-1,2,6-triaza-azulene]	90 nM	3 nM	2.5 nM	–	90 nM	–
CCN1CCc2c(-c3ccc(Cl)cc3)nn(Cc3ccccc3)c2CC1 [Example 166, 1-Benzyl-3-(4-chloro-phenyl)-6-ethyl-1,4,5,6,7,8-hexahydro-1,2,6-triaza-azulene]	8 nM	80 nM	560 nM	590 nM	–	–
Clc1ccc(-c2nn(Cc3ccncc3)c3c2CCNCC3)cc1 [Example 316, 3-(4-Chloro-phenyl)-1-pyridin-4-ylmethyl-1,4,5,6,7,8-hexahydro-1,2,6-triaza-azulene]	9.1 nM	60 nM	530 nM	5000 nM	–	–
CC1CN(Cc2ccccc2)CCc2c1nn(C(C)C)c2-c1ccc(F)cc1 (stereo not shown) [Example 305, 6-Benzyl-3-(4-fluoro-phenyl)-2-isopropyl-8-methyl-2,4,5,6,7,8-hexahydro-1,2,6-triaza-azulene]	600 nM	20 nM	60 nM	2200 nM	–	–
